Experimental data from patent publication US20070203212A1, “METHOD OF TREATING OSTEOARTHRITIS” (WARNER-LAMBERT COMPANY, priority 2002, published 2007).

Columns and labels:
[1] = tested on: carrageenan-induced thermal hyperalgesia; experiment: Carrageenan-induced thermal hyperalgesia (CITH), paw withdrawal latency; format: in vivo, rat; conditions: Day 1
Experimental: Male Sprague Dawley rats (200-300 g), obtained from Charles River, were housed in groups of 2 under a 12 hour light/dark cycle with food and water ad libitum. Animals were allowed to acclimate to the test room one hour prior to testing.
Thermal hyperalgesia was assessed using the rat plantar test (apparatus from Univ. California, San Diego) following a modified method of Hargreaves et al., 1988. Rats were habituated to the apparatus, which consisted of three perspex boxes that individually housed […] on an elevated glass table. A mobile radiant heat source (halogen lamp) was located under the glass table and focused onto the hind paw. Paw withdrawal latencies (PWL) were recorded in seconds (“s”). An automatic cut off point of 22.5 s was set to prevent tissue damage. The mean of 2-3 PWL was taken at each time point for both hind paws of each animal. The apparatus was calibrated to give a PWL of approximately 10 s before carrageenan administration.
After basal PWL were determined, animals receive an intraplantar 100 μL of 10 mg/mL) into the right hind paw. Lambda carrageenan (Sigma Chemical Co.) was dissolved in isotonic saline 5 minutes prior to injecting. PWL were reassessed following the same protocol 2 hours post carrageenan (this time point represented the start of peak hyperalgesia) to ascertain that hyperalgesia had developed. 6-(5-Carboxy-5-methyl-hexyloxy)-2,2-dimethyl-hexanoic acid, calcium salt was then administered orally via oral dosing needles 2.5 hours post carrageenan injection, and PWL were taken again at 30- or 60-minute intervals post drug administration for 6 hours.
Data consisted of the mean of 2-3 reads/paw for individual animals. Group data was the compiled individual means. Percent inhibition was calculated as follows for each time point: (mean drug treated−mean control)/(mean baseline−mean control)×100.

[2] = tested on: monosodium iodoacetate (MIA)-induced osteoarthritis; experiment: MIA rat model, acute single oral dose: change in hind paw weight distribution (joint pain); format: in vivo; conditions: for Day 7 2 hr. (% ± SEM) inhibition of MIA-induced change in hind paw weight distribution / Day 7 4 hr. (% ± SEM) inhibition of MIA-induced change in hind paw weight distribution / Day 14 2 hr. (% ± SEM) inhibition of MIA-induced change in hind paw weight distribution / Day 14 4 hr. (% ± SEM) inhibition of MIA-induced change in hind paw weight distribution / Day 7 6 hr. (% ± SEM) inhibition of MIA-induced change in hind paw weight distribution / Day 14 6 hr. (% ± SEM) inhibition of MIA-induced change in hind paw weight distribution: single oral dose 30 mg/kg; for Day 7 2 hr. (% ± SEM) inhibition of MIA-induced change in hind paw weight distribution: Day 7, 2 hours post dose; for Day 7 4 hr. (% ± SEM) inhibition of MIA-induced change in hind paw weight distribution: Day 7, 4 hours post dose; for Day 14 2 hr. (% ± SEM) inhibition of MIA-induced change in hind paw weight distribution: Day 14, 2 hours post dose; for Day 14 4 hr. (% ± SEM) inhibition of MIA-induced change in hind paw weight distribution: Day 14, 4 hours post dose; for Day 7 6 hr. (% ± SEM) inhibition of MIA-induced change in hind paw weight distribution: Day 7, 6 hours post dose; for Day 14 6 hr. (% ± SEM) inhibition of MIA-induced change in hind paw weight distribution: Day 14, 6 hours post dose
Experimental: (§1) It should be appreciated that in Biological Methods 1, 2, 4, and 5 below, hind paw weight bearing differentials between the paw of the limb having the control joint (in animals administered test compound vehicle only) and the paw of the limb having the contralateral test joint (in control or inducement animals administered test compound vehicle only and in treatment animals administered test compound dissolved in test compound vehicle) were determined using an incapacitance tester, model 2KG (Linton Instrumentation, Norfolk, United Kingdom). The incapacitance tester has a chamber on top with an outwardly sloping front wall that supports a rat's front limbs, and two weight sensing pads, one for each hind paw, that facilitates this determination. The hind paw weight bearing differentials were expressed in grams and calculated as follows: (the average weight in grams placed on the control limb minus the average weight in grams placed on the contralateral test limb for each of the inducement or treatment animals) minus (the average weight in grams placed on the control limb minus the average weight in grams placed on the contralateral test limb for each of the control animals). All results were statistically analyzed by comparing the average results for an induction or treatment group with the average result for its control group at the same time point using analysis of covariance (“ANCOVA”) followed by the Hoehberg's procedure and those with statistical significance had p<0.05 unless otherwise noted.
The rats were anesthetized with 5% volume/volume (“v/v”) isoflurane gas and maintained with 2% v/v isoflurane gas. The anesthetized rats were given a single intra-articular injection of 1 mg of MIA through the infrapatellar ligament of the right knee. MIA was dissolved in physiologic saline and administered in a volume of 50 μL. The contralateral control knee was injected with 50 μL of physiologic saline. Administration of isoflurane gas was discontinued, and the rats became fully conscious about 5 minutes later.
Shifts in hind paw weight distribution from the right to the left hind paws supporting the right (arthritic) and the left (contralateral control) hind leg knee joints were utilized as an index of joint pain and as a measure of compound efficacy. An incapacitance tester (Model 2KG, Linton Instrumentation, UK) was employed for determination of hind paw weight distribution. Each data point is the mean of three readings of 5 seconds duration.
CI-1027 (i.e., 6-(5-carboxy-5-methyl-hexyloxy)-2,2-dimethyl-hexanoic acid, calcium salt) was dissolved in hydroxypropylmethylcellulose (“HPMC”) vehicle (0.05% HPMC+0.2% Tween 80; compound amount was adjusted based on the percent of free acid, i.e., 6-(5-carboxy-5-methyl-hexyloxy)-2,2-dimethyl-hexanoic acid).
[…] Rats were then given a single, 10, 30, or 100 mg/kg, dose of CI-1027 via oral gavage (PO). Changes in hind paw weight distribution were determined 2, 4 and 6 hours post-compound administration.
6-(5-carboxy-5-methyl-hexyloxy)-2,2-dimethyl-hexanoic acid, calcium salt (“CI-1027”) and rofecoxib was tested in the rat MIA model in an acute dosing paradigm as described previously. MIA was injected into the right knee and saline into the left knee of all rats on Day 0. […] Two hours later, the rats were reassessed. The results for inhibition of pain, expressed as a percentage±standard error of the mean, are shown below in Table 5. The percent inhibition of pain was determined as described above in Biological Method 1. […] N=8 rats per group.

[3] = tested on: human recombinant IL-6/IL-6sR induced joint pain; experiment: IL-6 with IL-6 soluble receptor induced joint pain in rat; format: in vivo; conditions: single oral dose 30 mg/kg
Experimental: as §1
Human recombinant IL-6 (100 ng per rat; R&D Systems, Minneapolis, Minn.) was incubated at room temperature with human recombinant IL-6 soluble receptor (300 ng per rat; R&D Systems, Minneapolis, Minn.) in phosphate buffered saline (“PBS”) for 15 minutes prior to injection. Rats were anesthetized with 5% volume/volume (“v/v”) isoflurane gas and maintained with 2% v/v isoflurane gas. The anesthetized rats were given a single intra-articular injection of IL-6/WL-6sR through the infrapatellar ligament of the right knee in a volume of 50 μL. The contralateral control knee was injected with 50 μL of PBS. Administration of isoflurane gas was discontinued, and the rats became fully conscious about 5 minutes later.
Shifts in hind paw weight distribution from the right (arthritic) to the left (contralateral control) paws were utilized as an index of joint pain and as a measure of compound efficacy. An incapacitance tester (Model 2KG, Linton Instrumentation, UK) was employed for determination of hind paw weight distribution. Each data point is the mean of three, 5-second readings.
CI-1027 was dissolved in BPMC vehicle as described above. Baseline changes in hind paw weight distribution readings were determined one day prior to injection of IL-6/IL-6sR. On the day of the experiment (Day 0), a single dose of CI-1027 (10, 30 or 100 mg/kg) was given via oral gavage 3 hours prior to injection of IL-6/IL-6sR (n=10 rats per group). Changes in hind paw weight distribution were determined one, three, and six hours after injection of IL-6/IL-6sR.
In Table 4 below, data from the method of Biological Method 5 are expressed as a percent inhibition of a change in hind paw weight distribution ± the standard error of the mean. The percents inhibition were calculated as follows. Percent inhibition of a change in hind paw weight distribution [formula] wherein: ΔWC is the hind-paw weight differential between the healthy limb and the hrIL-6+ hrIL-6sR injected limb of the control animal group administered vehicle alone, as measured at time 1, 3, or 6 hours post injection; and
ΔWG is the hind-paw weight differential between the healthy limb and the hrIL-6+ hrIL-6sR injected limb of a treatment animal group as measured at time 1, 3, or 6 hours post injection.

[4] = tested on: monoclonal antibody-induced arthritis; experiment: Monoclonal antibody-induced arthritis (MAIA) mouse model, footpad and ankle swelling; format: in vivo; design: footpad and ankle swelling: dose or concentration left out as unconfirmed; conditions: BALB/c mice
Experimental: In a typical MAIA experiment, groups of four mice were injected intraperitoneally (“i.p.”) with 0.4 mL (BALB/c and DBA/1 strains) or 0.8 mL (C57BL/6, 129X1/SvJ, C3H/HeJ, and C3H/FeJ strains) with a 10 mg/mL solution of Arthrogen-CIA Monoclonal Antibody Blend (Chemicon International, Inc.). Two days later, the mice were injected i.p. with 0.2 mL of a 0.25 mg/mL solution of LPS (lipopolysaccharide form Escherichia coli (“E. coli”) strain 0111B4) in PBS. Footpad and ankle size was assessed using a Dyer Digital Caliper (#655-030-4916) on the day of mAb injection, and every two days following LPS injection.

CC(C)(CCCCCOCCCCCC(C)(C)C(=O)O)C(=O)O [A1, 7,7′-oxybis(2,2-dimethylheptanoic acid)]
CITH (%) percentage inhibition, paw withdrawal latency ([1]; single oral dose 30 mg/kg): 22%
Day 7 2 hr. (% ± SEM) inhibition of MIA-induced change in hind paw weight distribution [2]: 50 ± 11%
Day 7 4 hr. (% ± SEM) inhibition of MIA-induced change in hind paw weight distribution [2]: 15 ± 14%
Day 14 2 hr. (% ± SEM) inhibition of MIA-induced change in hind paw weight distribution [2]: −3 ± 15%
Day 14 4 hr. (% ± SEM) inhibition of MIA-induced change in hind paw weight distribution [2]: −9 ± 17%

CC(C)(CCCOCCCC(C)(C)C(=O)O)C(=O)O [A2, 5,5′-oxybis(2,2-dimethylpentanoic acid)]
CITH (%) percentage inhibition, paw withdrawal latency ([1]; single oral dose 30 mg/kg): −3%
Day 7 2 hr. (% ± SEM) inhibition of MIA-induced change in hind paw weight distribution [2]: −11 ± 15^ %
Day 7 4 hr. (% ± SEM) inhibition of MIA-induced change in hind paw weight distribution [2]: 16 ± 15%
Day 14 2 hr. (% ± SEM) inhibition of MIA-induced change in hind paw weight distribution [2]: 9 ± 13%
Day 14 4 hr. (% ± SEM) inhibition of MIA-induced change in hind paw weight distribution [2]: 9 ± 20%

CC(C)(CCOCCC(C)(C)C(=O)O)C(=O)O [A3, 4,4′-oxybis(2,2-dimethylbutanoic acid)]
CITH (%) percentage inhibition, paw withdrawal latency ([1]; single oral dose 30 mg/kg): 20%
Day 7 2 hr. (% ± SEM) inhibition of MIA-induced change in hind paw weight distribution [2]: 20 ± 4%
Day 7 4 hr. (% ± SEM) inhibition of MIA-induced change in hind paw weight distribution [2]: 34 ± 5%
Day 7 6 hr. (% ± SEM) inhibition of MIA-induced change in hind paw weight distribution [2]: 81 ± 6%
Day 14 2 hr. (% ± SEM) inhibition of MIA-induced change in hind paw weight distribution [2]: 33 ± 7%
Day 14 4 hr. (% ± SEM) inhibition of MIA-induced change in hind paw weight distribution [2]: 36 ± 3%
Day 14 6 hr. (% ± SEM) inhibition of MIA-induced change in hind paw weight distribution [2]: 27 ± 9%

CC(C)(CCCCCCCCCC(C)(C)C(=O)O)C(=O)O [A4, 2,2,12,12-tetramethyltridecanedioic acid]
CITH (%) percentage inhibition, paw withdrawal latency ([1]; single oral dose 30 mg/kg): 118%
CITH (%) percentage inhibition, paw withdrawal latency ([1]; single oral dose 100 mg/kg): 115%
Day 7 2 hr. (% ± SEM) inhibition of MIA-induced change in hind paw weight distribution [2]: 25 ± 5%
Day 7 4 hr. (% ± SEM) inhibition of MIA-induced change in hind paw weight distribution [2]: 38 ± 7%
Day 7 6 hr. (% ± SEM) inhibition of MIA-induced change in hind paw weight distribution [2]: 43 ± 6%
Day 14 2 hr. (% ± SEM) inhibition of MIA-induced change in hind paw weight distribution [2]: 35 ± 6%
Day 14 4 hr. (% ± SEM) inhibition of MIA-induced change in hind paw weight distribution [2]: 29 ± 8%
Day 14 6 hr. (% ± SEM) inhibition of MIA-induced change in hind paw weight distribution [2]: 55 ± 7%
1 hr. (% ± SEM) inhibition of (IL-6/IL-6sR)-induced change in hind paw weight distribution ([3]; Day 1, 1 hour post injection of IL-6/IL-6sR): 70 ± 9%
3 hr. (% ± SEM) inhibition of (IL-6/IL-6sR)-induced change in hind paw weight distribution ([3]; Day 1, 3 hours post injection of IL-6/IL-6sR): 79 ± 5%
6 hr. (% ± SEM) inhibition of (IL-6/IL-6sR)-induced change in hind paw weight distribution ([3]; Day 1, 6 hours post injection of IL-6/IL-6sR): 26 ± 6%

CS(=O)(=O)c1ccc(C2=C(c3ccccc3)C(=O)OC2)cc1 [Rofecoxib, reference compound]
Mean pain alleviation at 2 hours post administration (% ± SEM) ([2]; rofecoxib 3 mg/kg PO alone, Day 14): 23 ± 7%

CN(Cc1cnc2nc(N)nc(N)c2n1)c1ccc(C(=O)N[C@@H](CCC(=O)O)C(=O)O)cc1 [methotrexate, N-[4-[[(2,4-diamino-6-pteridinyl)methyl]methylamino]benzoyl]-L-glutamic acid, reference compound]
footpad and ankle swelling [4]: significantly inhibit footpad and ankle swelling
